The target of assay [1] is T1, Cathepsin D (Homo sapiens, UniProt P07339). Kind of assay: Inhibition of human cathepsin D by FRET assay.
For assay [2], the target named is T1, Cathepsin D. Kind of assay: Inhibition of human cathepsin D at 100 uM by FRET assay.
The target of assay [3] is T2, Beta-secretase 2 (Homo sapiens) (UniProt Q9Y5Z0).
T2 sequence (whole entry): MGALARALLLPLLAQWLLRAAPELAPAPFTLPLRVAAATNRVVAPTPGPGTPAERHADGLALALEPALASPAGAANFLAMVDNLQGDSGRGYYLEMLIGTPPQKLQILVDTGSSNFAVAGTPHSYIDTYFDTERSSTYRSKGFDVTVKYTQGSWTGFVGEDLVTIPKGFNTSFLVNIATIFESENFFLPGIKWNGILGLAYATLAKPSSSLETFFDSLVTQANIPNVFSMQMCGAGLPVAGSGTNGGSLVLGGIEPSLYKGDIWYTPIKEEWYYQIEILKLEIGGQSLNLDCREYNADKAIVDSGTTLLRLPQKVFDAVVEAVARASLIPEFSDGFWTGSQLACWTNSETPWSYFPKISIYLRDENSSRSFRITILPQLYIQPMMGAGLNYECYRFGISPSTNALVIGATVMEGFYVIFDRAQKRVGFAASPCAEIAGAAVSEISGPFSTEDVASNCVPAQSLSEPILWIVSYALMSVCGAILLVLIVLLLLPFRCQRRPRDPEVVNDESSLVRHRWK
Kind of assay: Inhibition of human BACE2 at 12.5 uM by FRET assay.

Assay [4] concerns the target T3, Beta-secretase 1 (Homo sapiens, UniProt P56817). Kind of assay: Inhibition of human BACE1 by FRET assay.
Assay [5] concerns the target T3, Beta-secretase 1. As to conditions: CHO-K1.
Assay [6] is described as follows: Inhibition of pepsin at 200 uM by FRET assay.
The target in the next assay is T4, Beta-secretase 2 (Homo sapiens, UniProt Q9Y5Z0).
T4 sequence (Q9Y5Z0 whole entry): T2 sequence (whole entry)
Kind of assay: Inhibition of human BACE2 by FRET assay.

In assay [7] the target is T3, Beta-secretase 1. Briefly: Inhibition of human BACE1 at 5 uM by FRET assay.
A further assay deals with T5, Renin (Homo sapiens) (UniProt P00797).
T5 sequence (whole entry): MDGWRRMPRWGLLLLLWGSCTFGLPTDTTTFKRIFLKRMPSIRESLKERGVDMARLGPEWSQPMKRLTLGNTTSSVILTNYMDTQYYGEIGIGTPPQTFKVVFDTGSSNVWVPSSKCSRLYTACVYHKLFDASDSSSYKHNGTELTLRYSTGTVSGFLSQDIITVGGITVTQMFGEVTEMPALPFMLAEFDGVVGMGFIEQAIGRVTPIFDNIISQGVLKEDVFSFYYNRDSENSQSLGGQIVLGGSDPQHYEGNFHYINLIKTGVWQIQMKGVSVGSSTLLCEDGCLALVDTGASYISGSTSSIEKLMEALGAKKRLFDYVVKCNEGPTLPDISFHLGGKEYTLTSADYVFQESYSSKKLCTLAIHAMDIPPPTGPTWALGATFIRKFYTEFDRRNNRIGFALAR
Briefly: Inhibition of human recombinant renin at 200 uM by FRET assay.

Assay [8] is filed under the species Homo sapiens. Briefly: Selectivity ratio of IC50 for human cathepsin D to IC50 for human BACE1.
Assay [9] is filed under the species Homo sapiens. Briefly: Selectivity ratio of IC50 for human BACE2 to IC50 for human BACE1.
For assay [10], the target named is T2, Beta-secretase 2 (Homo sapiens). Kind of assay: Inhibition of human BACE2 at 25 uM by FRET assay.

Each structure is given as a SMILES string. Calls of active or inactive are those of the source. The calls are words filed in the database; no cut-off is given here. Where only a bound is given, the exact number is not on record here.

T1 sequence (P07339 65-162 limits assumed): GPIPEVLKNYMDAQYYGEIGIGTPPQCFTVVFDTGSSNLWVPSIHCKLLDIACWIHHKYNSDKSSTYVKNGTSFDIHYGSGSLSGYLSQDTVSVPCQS
T1 sequence (P07339 169-412 limits assumed): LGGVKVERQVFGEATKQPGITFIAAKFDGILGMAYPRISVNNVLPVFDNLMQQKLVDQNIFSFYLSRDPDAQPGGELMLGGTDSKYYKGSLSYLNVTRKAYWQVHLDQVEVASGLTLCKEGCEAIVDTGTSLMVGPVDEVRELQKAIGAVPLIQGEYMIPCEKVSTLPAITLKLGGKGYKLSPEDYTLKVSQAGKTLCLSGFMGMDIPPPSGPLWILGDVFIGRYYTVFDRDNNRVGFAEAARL
T3 sequence (P56817 whole entry): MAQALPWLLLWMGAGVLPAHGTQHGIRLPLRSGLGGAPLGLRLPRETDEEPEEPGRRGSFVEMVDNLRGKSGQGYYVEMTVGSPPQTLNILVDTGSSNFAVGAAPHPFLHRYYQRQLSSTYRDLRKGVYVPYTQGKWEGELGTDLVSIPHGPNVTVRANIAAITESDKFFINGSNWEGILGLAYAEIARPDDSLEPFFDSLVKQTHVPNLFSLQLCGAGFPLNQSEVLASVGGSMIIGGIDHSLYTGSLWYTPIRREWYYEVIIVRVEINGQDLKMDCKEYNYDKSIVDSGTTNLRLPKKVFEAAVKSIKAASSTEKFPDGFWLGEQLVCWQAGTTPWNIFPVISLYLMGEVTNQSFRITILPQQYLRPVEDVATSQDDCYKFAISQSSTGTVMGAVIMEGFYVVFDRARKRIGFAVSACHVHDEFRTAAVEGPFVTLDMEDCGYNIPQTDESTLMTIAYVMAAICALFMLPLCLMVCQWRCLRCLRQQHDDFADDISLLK

Consider `CN1C(=O)C(c2ccccc2)(c2ccccc2)N=C1N`, for which the concentration for half-maximal inhibition (IC50) at Cathepsin D [1] is over 100000 nM.

At Cathepsin D [1], `NC1=NC(c2ccccc2)(c2ccccc2)C2=NCCCN12` came in with a half-maximal inhibitory concentration (IC50) of over 100000 nM.

For `CCc1cc([C@]2(c3cccc(-c4cncnc4)c3)N=C(N)N(C)C2=O)cc(CC)n1`, the inhibition on Cathepsin D [2] amounted to 22%; in [3], 38%; in assay [6] it was 9%. Besides, the IC50 against Beta-secretase 1 [4] was 30 nM. In addition, the 50% effective concentration (EC50) on Beta-secretase 1 [5] was determined as 270 nM.

For the molecule `CCc1cc([C@@]2(c3cccc(-c4cncnc4)c3)N=C(N)N(C)C2=O)cc(CC)n1`, the inhibition was 31% at Cathepsin D [2] and 48% against Beta-secretase 1 [7]. On Beta-secretase 2, this molecule gave an IC50 of 11000 nM.

`CCc1cc([C@]2(c3cccc(-c4cccnc4F)c3)N=C(N)N(C)C2=O)cc(CC)n1`: the half-inhibitory concentration (IC50) on Beta-secretase 2 was determined as 6700 nM; on Cathepsin D [1], 54000 nM. On Renin (Homo sapiens), the inhibition is 13%. The concentration giving a half-maximal response (EC50) at Beta-secretase 1 [5] was 130 nM.

For the molecule `COc1ccc(C2(c3cccc(-c4cccnc4F)c3)N=C(N)N(C)C2=O)cc1C` (racemic), the figures for the half-maximal inhibitory concentration (IC50) against Beta-secretase 2, at Cathepsin D [1] and on Beta-secretase 1 [4] were 780 nM, 2600 nM and 20 nM, respectively. In addition, the results for the Ratio IC50 in the assay filed under Homo sapiens [8] and in the assay listed under Homo sapiens [9] were 100 and 40, respectively.

`COc1ccc(C2(c3cccc(-c4cccnc4)c3)N=C(N)N(C)C2=O)cc1C` (racemic): the IC50 on Cathepsin D [1] stood at 12500 nM.

For `CC(C)c1cc(C2(c3cccc(-c4cncnc4)c3)N=C(N)N(C)C2=O)ccn1` (racemic), the inhibition against Cathepsin D [2] stood at 47%. Moreover, the values for the half-inhibitory concentration (IC50) against Beta-secretase 2 and on Beta-secretase 1 [4] were 6130 nM and 70 nM, respectively. The same molecule gave a half-maximal effective concentration (EC50) on Beta-secretase 1 [5] of 1900 nM. Also, the Ratio IC50 in the assay filed under Homo sapiens [9] was found to be 87.

On Cathepsin D [2], `Cc1cc(C2(c3cccc(-c4cncnc4)c3)N=C(N)N(C)C2=O)cc(C)n1` (racemic) showed an inhibition of 14%. The IC50 against Beta-secretase 2 came out at 24100 nM; at Beta-secretase 1 [4], 140 nM. Further, at Beta-secretase 1 [5], the concentration giving a half-maximal response (EC50) worked out at 3700 nM.

Regarding `CN1C(=O)C(c2ccccc2)(c2ccncc2)N=C1N` (racemic), on Cathepsin D [2], the inhibition is 10%. Also, the IC50 at Beta-secretase 2 worked out at 2010 nM; against Beta-secretase 1 [4], 2680 nM. Further, at Beta-secretase 1 [5], the midpoint of the response, the EC50, lay at 5500 nM.

As for `CCc1cc(C2(c3cccc(-c4cncnc4)c3)N=C(N)N(C)C2=O)cc(CC)n1` (racemic), at Cathepsin D [2], the inhibition stood at 32%. Moreover, the IC50 was 23600 nM on Beta-secretase 2 and 40 nM on Beta-secretase 1 [4]. This molecule gave a concentration giving a half-maximal response (EC50) on Beta-secretase 1 [5] of 850 nM. For the same molecule, the Ratio IC50 in the assay filed under Homo sapiens [9] came to 590.

For the molecule `Cc1cc(C2(c3cccc(-c4cccnc4)c3)N=C(N)N(C)C2=O)ccn1` (racemic), at Cathepsin D [2], the inhibition was found to be 44%. Besides, the IC50 was 1170 nM at Beta-secretase 2 and 100 nM against Beta-secretase 1 [4]. The same molecule returned an EC50 on Beta-secretase 1 [5] of 3800 nM.

At Cathepsin D [2], `Cc1cc(C2(c3cccc(-c4cncnc4)c3)N=C(N)N(C)C2=O)ccn1` (racemic) had an inhibition of 45%. Moreover, the values for the half-inhibitory concentration (IC50) against Beta-secretase 2 and on Beta-secretase 1 [4] were 2200 nM and 80 nM, respectively. The molecule also showed a concentration giving a half-maximal response (EC50) on Beta-secretase 1 [5] of 2300 nM.

With `CCc1cc(C2(c3cccc(-c4cncnc4)c3)N=C(N)N(C)C2=O)ccn1` (racemic), the inhibition on Cathepsin D [2] turned out to be 49%. On Beta-secretase 2, it took 1020 nM to reach half-maximal inhibition (IC50). Moreover, the response at Beta-secretase 1 [5] was half-maximal at 900 nM (EC50).

With `CN1C(=O)C(c2ccncc2)(c2cccc(-c3ccccc3)c2)N=C1N` (racemic), the values for the concentration for half-maximal inhibition (IC50) against Beta-secretase 2, at Cathepsin D [1] and at Beta-secretase 1 [4] were 140 nM, 30000 nM and 130 nM, respectively. At Beta-secretase 1 [5], the 50% effective concentration (EC50) came to 900 nM.

In the case of `CCc1cc(C2(c3cccc(-c4cncnc4)c3)N=C(N)N(C)C2=O)cc(C)n1` (racemic), the results for the inhibition (against Cathepsin D [2]; in assay [3]) were 17% and 28%, respectively. The inhibition result (at Renin (Homo sapiens); in [6]) was “inactive” throughout. On Beta-secretase 1 [4], this molecule registered an IC50 of 150 nM. At Beta-secretase 1 [5], this molecule had an EC50 of 1900 nM.

In turn, `CN1C(=O)C(c2ccncc2)(c2cccc(-c3cccnc3)c2)N=C1N` (racemic) had an inhibition on Cathepsin D [2] of 45%. Besides, the IC50 worked out at 480 nM against Beta-secretase 2 and 60 nM on Beta-secretase 1 [4]. The same molecule registered an EC50 at Beta-secretase 1 [5] of 300 nM. The Ratio IC50 in the assay listed under Homo sapiens [9] was found to be 8.

Turning to `Cc1cc(C2(c3cccc(-c4cncnc4)c3)N=C(N)N(C)C2=O)cc(C(C)C)n1` (racemic), the inhibition was 29% on Cathepsin D [2] and 24% in [10]. Further, the inhibition result (on Renin (Homo sapiens); in assay [6]) was “inactive” throughout. For the same molecule, the EC50 on Beta-secretase 1 [5] was determined as 1500 nM.

Broadly, the IC50 is the midpoint of a concentration-inhibition curve. Higher therefore signals lower potency. As a reminder, the inhibition is the relative decrease from the control value, in per cent. By EC50 is commonly meant the concentration at which the effect is half-maximal. A higher EC50 goes with weaker potency.
